Legend:
[1] = target: Tyrosine-protein kinase BTK (Homo sapiens, UniProt Q06187); assay: Inhibition of BTK auto-phosphorylation at Y223 in human U2932 cells measured after 4 hrs by chemiluminescent assay
[2] = target: Serine/threonine-protein kinase OSR1 (Homo sapiens) (UniProt O95747); assay: Inhibition of wild-type human full length OSR1 (M1 to S527 residues) expressed in mammalian expression system assessed as residual activity at 1 uM by Kinomescan method relative to control
[3] = system: Epidermal growth factor receptor (Homo sapiens), P00533 [UNDEFINED MUTATION]; assay: Inhibition of human partial length EGFR L747-S752del/P753S mutant expressed in bacterial expression system assessed as residual activity at 1 uM by Kinomescan method relative to control
[4] = target: RAC-beta serine/threonine-protein kinase (Homo sapiens) (UniProt P31751); assay: Inhibition of wild-type human partial length AKT2 expressed in bacterial expression system assessed as residual activity at 1 uM by Kinomescan method relative to control
[5] = target: Protein kinase C epsilon type (Homo sapiens) (UniProt Q02156); assay: Inhibition of wild-type human partial length PRKCE (A378 to P737 residues) expressed in mammalian expression system assessed as residual activity at 1 uM by Kinomescan method relative to control
[6] = target: Ribosomal protein S6 kinase alpha-1 (Homo sapiens) (UniProt Q15418); assay: Inhibition of wild-type human partial length N-terminal RSK1 Kinase domain 1 (M1 to E388 residues) expressed in bacterial expression system assessed as residual activity at 1 uM by Kinomescan method relative to control
[7] = target: Tyrosine-protein kinase ABL2 (Homo sapiens) (UniProt P42684); assay: Inhibition of wild-type human ABL2 (A248 to G542 residues) expressed in bacterial expression system assessed as residual activity at 1 uM by Kinomescan method relative to control
[8] = target: Fibroblast growth factor receptor 2 (Homo sapiens) (UniProt P21802); assay: Inhibition of wild-type human partial length FGFR2 (D457 to E769 residues) expressed in bacterial expression system assessed as residual activity at 1 uM by Kinomescan method relative to control
[9] = target: Serine/threonine-protein kinase PLK3 (Homo sapiens) (UniProt Q9H4B4); assay: Inhibition of wild-type human partial length PLK3 (A42 to L334 residues) expressed in mammalian expression system assessed as residual activity at 1 uM by Kinomescan method relative to control
[10] = target: Cyclin-dependent kinase 2 (Homo sapiens) (UniProt P24941); assay: Inhibition of wild-type human full length CDK2 (M1 to L298 residues) expressed in bacterial expression system assessed as residual activity at 1 uM by Kinomescan method relative to control
[11] = target: MAP/microtubule affinity-regulating kinase 3 (Homo sapiens) (UniProt P27448); assay: Inhibition of wild-type human full length MARK3 (M1 to L729 residues) expressed in bacterial expression system assessed as residual activity at 1 uM by Kinomescan method relative to control
[12] = target: Serine/threonine-protein kinase Nek5 (Homo sapiens) (UniProt Q6P3R8); assay: Inhibition of wild-type human partial length NEK5 (M1 to M279 residues) expressed in bacterial expression system assessed as residual activity at 1 uM by Kinomescan method relative to control
[13] = system: Tyrosine-protein kinase ABL1 (Homo sapiens), P00519 [Q252H]; assay: Inhibition of human non-phosphorylated ABL1 Q252H mutant (S229 to K512 residues) expressed in mammalian expression system assessed as residual activity at 1 uM by Kinomescan method relative to control
[14] = target: Mitogen-activated protein kinase kinase kinase 7 (Homo sapiens) (UniProt O43318); assay: Inhibition of wild-type human partial length TAK1 (M1 to Q303 residues) expressed in mammalian expression system assessed as residual activity at 1 uM by Kinomescan method relative to control
[15] = target: Ribosomal protein S6 kinase alpha-6 (Homo sapiens) (UniProt Q9UK32); assay: Inhibition of wild-type human partial length N-terminal RSK4 kinase domain 1 (M1 to E397 residues) expressed in mammalian expression system assessed as residual activity at 1 uM by Kinomescan method relative to control
[16] = target: Serine/threonine-protein kinase DCLK2 (Homo sapiens) (UniProt Q8N568); assay: Inhibition of wild-type human partial length DCAMKL2 (K273 to V664 residues) expressed in bacterial expression system assessed as residual activity at 1 uM by Kinomescan method relative to control
[17] = target: Ribosomal protein S6 kinase alpha-3 (Homo sapiens) (UniProt P51812); assay: Inhibition of wild-type human partial length N-terminal RSK2 kinase domain 1 (M1 to D394 residues) expressed in mammalian expression system assessed as residual activity at 1 uM by Kinomescan method relative to control
[18] = target: Bone morphogenetic protein receptor type-2 (Homo sapiens) (UniProt Q13873); assay: Inhibition of wild-type human partial length BMPR2 (R179 to Q526 residues) expressed in mammalian expression system assessed as residual activity at 1 uM by Kinomescan method relative to control
[19] = target: Protein kinase C delta type (Homo sapiens) (UniProt Q05655); assay: Inhibition of wild-type human partial length PRKCD (Q328 to D676 residues) expressed in bacterial expression system assessed as residual activity at 1 uM by Kinomescan method relative to control
[20] = AUC (0 to t) in Sprague-Dawley rat at 1 mg/kg, iv by LC-MS/MS method; format: ADME, organism-based; details: in vivo
[21] = target: Serine/threonine-protein kinase 3 (Homo sapiens) (UniProt Q13188); assay: Inhibition of wild-type human partial length MST2 (D17 to E318 residues) expressed in bacterial expression system assessed as residual activity at 1 uM by Kinomescan method relative to control
[22] = system: Receptor-type tyrosine-protein kinase FLT3 (Homo sapiens), P36888 [D835H]; assay: Inhibition of human partial length FLT3 D835H mutant (V592 to Y969 residues) expressed in bacterial expression system assessed as residual activity at 1 uM by Kinomescan method relative to control
[23] = target: Activin receptor type-2B (Homo sapiens) (UniProt Q13705); assay: Inhibition of wild-type human ACVR2B (H169 to D504 residues) expressed in bacterial expression system assessed as residual activity at 1 uM by Kinomescan method relative to control
[24] = system: Tyrosine-protein kinase ABL1 (Homo sapiens), P00519 [T315I]; assay: Inhibition of human non-phosphorylated ABL1 T315I mutant (S229 to K512 residues) expressed in mammalian expression system assessed as residual activity at 1 uM by Kinomescan method relative to control
[25] = target: Serine/threonine-protein kinase 38-like (Homo sapiens) (UniProt Q9Y2H1); assay: Inhibition of wild-type human partial length NDR2 (N34 to E447 residues) expressed in bacterial expression system assessed as residual activity at 1 uM by Kinomescan method relative to control
[26] = system: Receptor-type tyrosine-protein kinase FLT3 (Homo sapiens), P36888 [K663Q]; assay: Inhibition of human partial length FLT3 K663Q mutant (V592 to Y969 residues) expressed in bacterial expression system assessed as residual activity at 1 uM by Kinomescan method relative to control

Chain of Protein kinase C epsilon type (Homo sapiens) (Q02156 whole entry, the tested form may be a part): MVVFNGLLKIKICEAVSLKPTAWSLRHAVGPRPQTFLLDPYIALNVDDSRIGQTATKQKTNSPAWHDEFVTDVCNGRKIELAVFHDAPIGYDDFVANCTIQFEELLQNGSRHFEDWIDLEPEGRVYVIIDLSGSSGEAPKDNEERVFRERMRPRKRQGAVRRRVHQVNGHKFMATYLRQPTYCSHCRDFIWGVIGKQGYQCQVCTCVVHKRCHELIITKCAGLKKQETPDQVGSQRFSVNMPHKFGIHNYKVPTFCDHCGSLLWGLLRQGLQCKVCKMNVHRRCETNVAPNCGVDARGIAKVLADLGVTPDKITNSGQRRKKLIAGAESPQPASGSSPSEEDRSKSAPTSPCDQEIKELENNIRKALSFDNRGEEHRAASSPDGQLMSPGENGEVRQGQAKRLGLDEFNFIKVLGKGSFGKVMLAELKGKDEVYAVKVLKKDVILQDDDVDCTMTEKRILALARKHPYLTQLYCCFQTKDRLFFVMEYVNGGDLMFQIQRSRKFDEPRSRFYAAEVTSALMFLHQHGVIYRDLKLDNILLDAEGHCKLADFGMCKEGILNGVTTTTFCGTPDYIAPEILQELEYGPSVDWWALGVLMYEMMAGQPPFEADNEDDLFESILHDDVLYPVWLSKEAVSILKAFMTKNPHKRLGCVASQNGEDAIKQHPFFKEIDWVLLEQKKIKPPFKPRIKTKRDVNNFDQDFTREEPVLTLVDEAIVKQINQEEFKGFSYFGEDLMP
Chain of Serine/threonine-protein kinase PLK3 (Homo sapiens) (Q9H4B4 whole entry, looked up, the tested form may be a part): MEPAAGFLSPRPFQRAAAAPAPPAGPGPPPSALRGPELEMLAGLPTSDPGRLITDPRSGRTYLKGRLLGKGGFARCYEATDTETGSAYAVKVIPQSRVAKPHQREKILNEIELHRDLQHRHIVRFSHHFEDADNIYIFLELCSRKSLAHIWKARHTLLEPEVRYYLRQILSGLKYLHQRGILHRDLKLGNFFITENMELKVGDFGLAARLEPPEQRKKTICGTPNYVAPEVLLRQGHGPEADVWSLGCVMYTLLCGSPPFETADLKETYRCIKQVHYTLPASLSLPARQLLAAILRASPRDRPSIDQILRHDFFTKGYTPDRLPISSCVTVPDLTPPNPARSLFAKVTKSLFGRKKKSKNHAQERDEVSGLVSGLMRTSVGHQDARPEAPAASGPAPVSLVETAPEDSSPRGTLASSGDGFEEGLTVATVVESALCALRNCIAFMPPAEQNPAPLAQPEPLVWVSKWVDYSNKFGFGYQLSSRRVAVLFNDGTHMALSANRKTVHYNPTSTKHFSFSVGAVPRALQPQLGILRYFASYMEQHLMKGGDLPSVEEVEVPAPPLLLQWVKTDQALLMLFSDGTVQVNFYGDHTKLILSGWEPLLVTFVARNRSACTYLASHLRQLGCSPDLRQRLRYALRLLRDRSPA
Chain of Serine/threonine-protein kinase 3 (Homo sapiens) (Q13188 whole entry, the tested form may be a part): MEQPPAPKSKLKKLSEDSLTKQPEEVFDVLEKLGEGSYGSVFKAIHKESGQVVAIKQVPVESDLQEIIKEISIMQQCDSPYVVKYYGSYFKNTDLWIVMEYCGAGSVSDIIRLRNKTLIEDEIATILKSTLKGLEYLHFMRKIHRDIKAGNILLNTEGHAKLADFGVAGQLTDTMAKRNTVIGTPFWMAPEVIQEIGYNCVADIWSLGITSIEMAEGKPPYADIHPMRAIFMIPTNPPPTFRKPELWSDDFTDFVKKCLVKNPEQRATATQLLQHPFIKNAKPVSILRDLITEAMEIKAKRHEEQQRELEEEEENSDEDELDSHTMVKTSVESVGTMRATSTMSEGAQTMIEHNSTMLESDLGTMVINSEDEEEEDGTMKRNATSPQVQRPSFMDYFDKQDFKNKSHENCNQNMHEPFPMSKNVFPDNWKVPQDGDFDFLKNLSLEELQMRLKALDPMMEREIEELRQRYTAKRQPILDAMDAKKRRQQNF
Chain of Serine/threonine-protein kinase OSR1 (Homo sapiens) (O95747 2-527 limits assumed): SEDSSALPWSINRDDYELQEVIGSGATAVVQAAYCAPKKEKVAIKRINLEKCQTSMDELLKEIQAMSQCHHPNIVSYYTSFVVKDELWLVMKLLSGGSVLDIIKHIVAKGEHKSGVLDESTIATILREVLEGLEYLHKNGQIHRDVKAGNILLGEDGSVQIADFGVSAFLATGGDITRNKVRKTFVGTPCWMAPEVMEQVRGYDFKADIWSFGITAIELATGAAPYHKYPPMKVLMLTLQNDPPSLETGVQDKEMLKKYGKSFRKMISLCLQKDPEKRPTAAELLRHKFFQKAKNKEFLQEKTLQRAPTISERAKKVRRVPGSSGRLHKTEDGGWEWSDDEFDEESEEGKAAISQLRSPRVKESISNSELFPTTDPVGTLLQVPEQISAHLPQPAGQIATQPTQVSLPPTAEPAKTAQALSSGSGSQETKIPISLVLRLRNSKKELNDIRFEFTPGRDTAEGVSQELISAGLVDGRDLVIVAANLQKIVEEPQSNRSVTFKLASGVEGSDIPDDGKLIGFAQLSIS
Chain of Fibroblast growth factor receptor 2 (Homo sapiens) (P21802 22-821 limits assumed): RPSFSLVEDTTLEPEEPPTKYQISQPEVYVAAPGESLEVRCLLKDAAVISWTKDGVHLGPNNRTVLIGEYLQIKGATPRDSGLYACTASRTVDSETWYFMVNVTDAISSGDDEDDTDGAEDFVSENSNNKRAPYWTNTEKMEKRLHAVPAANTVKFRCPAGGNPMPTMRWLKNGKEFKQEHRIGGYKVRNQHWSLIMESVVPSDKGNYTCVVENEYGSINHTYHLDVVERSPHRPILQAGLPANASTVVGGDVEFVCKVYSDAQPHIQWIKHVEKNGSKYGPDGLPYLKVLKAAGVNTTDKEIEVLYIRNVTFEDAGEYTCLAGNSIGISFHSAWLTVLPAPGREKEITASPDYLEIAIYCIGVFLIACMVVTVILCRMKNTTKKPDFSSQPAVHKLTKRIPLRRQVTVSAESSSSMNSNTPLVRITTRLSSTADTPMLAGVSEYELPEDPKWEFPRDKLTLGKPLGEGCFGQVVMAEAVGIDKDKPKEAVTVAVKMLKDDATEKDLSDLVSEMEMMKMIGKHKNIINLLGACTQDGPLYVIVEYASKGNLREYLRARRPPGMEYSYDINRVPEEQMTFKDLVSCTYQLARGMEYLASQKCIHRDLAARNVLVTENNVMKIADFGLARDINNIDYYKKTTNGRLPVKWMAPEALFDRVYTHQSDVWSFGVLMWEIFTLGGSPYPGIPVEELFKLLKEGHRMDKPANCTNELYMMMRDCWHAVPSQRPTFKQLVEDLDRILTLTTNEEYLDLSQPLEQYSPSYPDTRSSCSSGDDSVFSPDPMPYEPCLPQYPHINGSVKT
Chain of Protein kinase C delta type (Homo sapiens) (Q05655 whole entry, looked up, the tested form may be a part): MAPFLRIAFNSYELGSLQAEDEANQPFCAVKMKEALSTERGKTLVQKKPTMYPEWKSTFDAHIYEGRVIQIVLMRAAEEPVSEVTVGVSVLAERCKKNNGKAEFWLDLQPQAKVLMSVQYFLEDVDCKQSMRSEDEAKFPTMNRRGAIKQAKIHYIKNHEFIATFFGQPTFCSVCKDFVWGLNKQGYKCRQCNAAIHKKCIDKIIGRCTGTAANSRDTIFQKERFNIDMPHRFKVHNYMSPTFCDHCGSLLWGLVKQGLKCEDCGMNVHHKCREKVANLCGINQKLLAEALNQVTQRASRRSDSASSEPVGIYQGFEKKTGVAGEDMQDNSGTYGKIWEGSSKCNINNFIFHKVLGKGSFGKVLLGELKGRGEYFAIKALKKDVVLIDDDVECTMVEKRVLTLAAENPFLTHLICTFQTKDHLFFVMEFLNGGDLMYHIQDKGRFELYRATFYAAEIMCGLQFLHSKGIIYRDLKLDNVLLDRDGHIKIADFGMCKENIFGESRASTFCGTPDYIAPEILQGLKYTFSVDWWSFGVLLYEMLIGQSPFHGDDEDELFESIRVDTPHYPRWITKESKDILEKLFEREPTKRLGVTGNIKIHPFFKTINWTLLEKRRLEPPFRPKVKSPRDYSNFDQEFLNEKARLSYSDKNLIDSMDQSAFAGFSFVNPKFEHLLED
Chain of Serine/threonine-protein kinase Nek5 (Homo sapiens) (Q6P3R8 whole entry, the tested form may be a part): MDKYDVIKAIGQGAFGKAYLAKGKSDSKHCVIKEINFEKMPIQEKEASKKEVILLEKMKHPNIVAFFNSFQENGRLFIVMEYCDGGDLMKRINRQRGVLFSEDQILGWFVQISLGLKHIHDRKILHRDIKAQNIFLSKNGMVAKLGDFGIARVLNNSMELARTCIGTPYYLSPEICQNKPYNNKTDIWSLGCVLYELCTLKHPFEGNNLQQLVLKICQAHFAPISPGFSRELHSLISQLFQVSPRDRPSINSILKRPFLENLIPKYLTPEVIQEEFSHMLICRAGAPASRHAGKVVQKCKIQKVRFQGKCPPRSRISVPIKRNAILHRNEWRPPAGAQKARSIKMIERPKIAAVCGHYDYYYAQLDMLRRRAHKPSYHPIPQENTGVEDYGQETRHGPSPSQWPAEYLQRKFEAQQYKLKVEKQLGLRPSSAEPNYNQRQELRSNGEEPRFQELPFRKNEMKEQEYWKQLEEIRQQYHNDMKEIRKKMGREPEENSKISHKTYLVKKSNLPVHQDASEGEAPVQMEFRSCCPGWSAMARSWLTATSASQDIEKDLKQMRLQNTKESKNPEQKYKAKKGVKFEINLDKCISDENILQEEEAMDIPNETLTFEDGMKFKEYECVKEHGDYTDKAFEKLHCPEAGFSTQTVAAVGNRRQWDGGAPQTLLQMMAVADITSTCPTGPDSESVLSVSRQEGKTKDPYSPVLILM
Chain of Serine/threonine-protein kinase 38-like (Homo sapiens) (Q9Y2H1 2-464 limits assumed): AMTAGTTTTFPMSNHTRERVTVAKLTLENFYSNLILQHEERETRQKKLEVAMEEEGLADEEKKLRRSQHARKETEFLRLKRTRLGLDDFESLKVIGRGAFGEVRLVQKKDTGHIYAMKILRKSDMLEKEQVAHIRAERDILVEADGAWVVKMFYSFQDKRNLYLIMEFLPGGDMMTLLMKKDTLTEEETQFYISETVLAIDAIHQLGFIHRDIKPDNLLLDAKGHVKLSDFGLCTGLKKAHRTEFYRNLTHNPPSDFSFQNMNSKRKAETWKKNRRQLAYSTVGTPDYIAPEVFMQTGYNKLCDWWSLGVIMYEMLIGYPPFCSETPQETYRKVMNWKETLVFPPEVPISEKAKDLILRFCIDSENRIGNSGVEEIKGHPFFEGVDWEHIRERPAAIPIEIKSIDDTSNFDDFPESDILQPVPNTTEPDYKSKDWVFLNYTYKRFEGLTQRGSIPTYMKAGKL

## C=CC(=O)Nc1cc(Nc2cc(-c3cccc(NC(=O)c4ccc(C(C)(C)C)cc4)c3C)cn(C)c2=O)ccc1C(=O)N1CCOCC1
[1]
  EC50: < 30 nM
[2]
  Activity: 100%
[3]
  Activity: 88%
[4]
  Activity: 95%
[5]
  Activity: 96%
[6]
  Activity: 87%
[7]
  Activity: 100%
[8]
  Activity: 74%
[9]
  Activity: 95%
[10]
  Activity: 99%
[11]
  Activity: 100%
[12]
  Activity: 100%
[13]
  Activity: 100%
[14]
  Activity: 89%
[15]
  Activity: 90%
[16]
  Activity: 89%
[17]
  Activity: 100%
[18]
  Activity: 93%
[19]
  Activity: 96%
[20]
  AUC(0-t): 182 ng·h/mL
[21]
  Activity: 87%
[22]
  Activity: 100%
[23]
  Activity: 73%
[24]
  Activity: 99%
[25]
  Activity: 100%
[26]
  Activity: 94%

— ChEMBL document CHEMBL4024706 (Eur J Med Chem, 2017)
